The text below walks through data of PubChem BioAssay AID1259407 (Chemical Carcinogenesis Research Information System (CCRIS), 2018).

In this data set the test system is CCRIS mutagenicity, Ames/micronucleus/aberration tests. The data set can be described thus: CCRIS mutagenicity studies.

Activity calls are given as the source filed them. How the calls were made is not given here.

For `O=c1c(-c2ccc(O)cc2)coc2cc(O)cc(O)c12`, the mutagenic call reads like this: (End Point: IN VITRO CHROMOSOMAL ABERRATIONS, Test System: HUMAN PERIPHERAL LYMPHOCYTES, Metabolic Activation: NONE) “active; positive (structural changes)”; (End Point: IN VITRO MICRONUCLEUS, Test System: CHINESE HAMSTER V79 CELLS, Metabolic Activation: NONE) “active; positive”; (End Point: IN VITRO MICRONUCLEUS, Test System: MOUSE LYMPHOMA L5178Y CELLS, Metabolic Activation: NONE) “active; positive”; (End Point: IN VIVO CHROMOSOMAL ABERRATIONS, Test System: MAMMARY GLAND CELLS, USING DUAL PROBE FISH, Species: RAT, Strain/Sex: SPRAGUE-DAWLEY/FEMALE, Route: DIET) “inactive; negative”; (End Point: IN VIVO MICRONUCLEUS, Test System: MAMMARY GLAND CELLS, Species: RAT, Strain/Sex: SPRAGUE-DAWLEY/FEMALE, Route: DIET) “inactive; negative”; (End Point: MORPHOLOGICAL TRANSFORMATION, Test System: SYRIAN HAMSTER EMBRYO CELLS (SHE), Metabolic Activation: NONE) “inactive; negative”. In addition, the mutagenic call by setting is: (Test System: CHINESE HAMSTER V-79, Strain/Indicator: V-79 (HPRT)/6-THIOGUANINE, Metabolic Activation: NONE) “active; positive”; (Test System: MOUSE LYMPHOMA, Strain/Indicator: L5178Y TK+/-, Metabolic Activation: NONE) “active; positive (above 90 umol/l)”; (Test System: MOUSE LYMPHOMA, Strain/Indicator: L5178Y TK+/-, Metabolic Activation: S-9) “active; positive”; (Test System: SYRIAN HAMSTER EMBRYO CELLS, Strain/Indicator: HPRT/6-THIOGUANINE, Metabolic Activation: NONE, Method: PLATE) “active; positive”.

`Clc1ccc2c(c1)oc1ccccc12`: the mutagenic call was “active; positive” (Test System: AMES SALMONELLA TYPHIMURIUM, Strain/Indicator: TA98, Metabolic Activation: NONE, Method: STANDARD PLATE); “active; positive” (Test System: AMES SALMONELLA TYPHIMURIUM, Strain/Indicator: TA98, Metabolic Activation: RAT, LIVER, S-9, PHENOBARBITAL AND NAPHTHOFLAVONE, Method: STANDARD PLATE); “active; positive” (Test System: AMES SALMONELLA TYPHIMURIUM, Strain/Indicator: TA100, Metabolic Activation: NONE, Method: STANDARD PLATE); “active; positive” (Test System: AMES SALMONELLA TYPHIMURIUM, Strain/Indicator: TA100, Metabolic Activation: RAT, LIVER, S-9, PHENOBARBITAL AND NAPHTHOFLAVONE, Method: STANDARD PLATE).

With `CCC[CH2][Sn]([CH2]CCC)([O]C(C)=O)[O]C(C)=O`, the mutagenic call was “inactive; negative” (Test System: AMES SALMONELLA TYPHIMURIUM, Strain/Indicator: TA98, Metabolic Activation: HAMSTER, LIVER, S-9, AROCLOR 1254 (10%), Method: PREINCUBATION); “inactive; negative” (Test System: AMES SALMONELLA TYPHIMURIUM, Strain/Indicator: TA98, Metabolic Activation: NONE, Method: PREINCUBATION); “inactive; negative” (Test System: AMES SALMONELLA TYPHIMURIUM, Strain/Indicator: TA98, Metabolic Activation: RAT, LIVER, S-9, AROCLOR 1254 (10%), Method: PREINCUBATION); “inactive; negative” (Test System: AMES SALMONELLA TYPHIMURIUM, Strain/Indicator: TA100, Metabolic Activation: HAMSTER, LIVER, S-9, AROCLOR 1254 (10%), Method: PREINCUBATION); “inactive; negative” (Test System: AMES SALMONELLA TYPHIMURIUM, Strain/Indicator: TA100, Metabolic Activation: NONE, Method: PREINCUBATION); “inactive; negative” (Test System: AMES SALMONELLA TYPHIMURIUM, Strain/Indicator: TA100, Metabolic Activation: RAT, LIVER, S-9, AROCLOR 1254 (10%), Method: PREINCUBATION). Besides, the mutagenic call (Test System: AMES SALMONELLA TYPHIMURIUM, Strain/Indicator: TA1535, Metabolic Activation: HAMSTER, LIVER, S-9, AROCLOR 1254 (10%), Method: PREINCUBATION) is “inactive; negative”; the mutagenic call (Test System: AMES SALMONELLA TYPHIMURIUM, Strain/Indicator: TA1535, Metabolic Activation: NONE, Method: PREINCUBATION) was “inactive; negative”; the mutagenic call (Test System: AMES SALMONELLA TYPHIMURIUM, Strain/Indicator: TA1535, Metabolic Activation: RAT, LIVER, S-9, AROCLOR 1254 (10%), Method: PREINCUBATION) is “inactive; negative”; the mutagenic call (Test System: AMES SALMONELLA TYPHIMURIUM, Strain/Indicator: TA1537, Metabolic Activation: HAMSTER, LIVER, S-9, AROCLOR 1254 (10%), Method: PREINCUBATION) is “inactive; negative”; the mutagenic call (Test System: AMES SALMONELLA TYPHIMURIUM, Strain/Indicator: TA1537, Metabolic Activation: NONE, Method: PREINCUBATION) is “inactive; negative”; the mutagenic call (Test System: AMES SALMONELLA TYPHIMURIUM, Strain/Indicator: TA1537, Metabolic Activation: RAT, LIVER, S-9, AROCLOR 1254 (10%), Method: PREINCUBATION) is “inactive; negative”.

As to `Cn1nnc2c(C(N)=O)ncn2c1=O`, the mutagenic call was “active; positive” (End Point: IN VITRO CHROMOSOMAL ABERRATIONS, Test System: HUMAN HCT116/3-6 CELLS, Metabolic Activation: NONE); “active; positive” (End Point: IN VITRO CHROMOSOMAL ABERRATIONS, Test System: HUMAN HCT116 CELLS, Metabolic Activation: NONE); “active; positive” (End Point: IN VITRO CHROMOSOMAL ABERRATIONS, Test System: HUMAN MT1 CELLS, Metabolic Activation: NONE); “active; positive” (End Point: IN VITRO CHROMOSOMAL ABERRATIONS, Test System: HUMAN TK6 CELLS, Metabolic Activation: NONE).
